Results published in PMC3724117 (British Journal of Pharmacology, 2013).
Where two headings read alike, the source gives them in different places. One block for each compound: values may come before it.

Assays:
[1] = test system: histamine-evoked Ca^2+ signals; format: cell-based, human; conditions: for IC50: Homo sapiens
[2] = test system: intracellular Ca^2+ stores; assay: Ca2+ content of the intracellular stores of human ASMC; format: cell-based; conditions: 2-APB, stores assessed with ionomycin 1 μM
[3] = biological target: EP2 receptors (Homo sapiens, UniProt P43116); format: cell-based
EP2 receptors, sequence (P43116 whole entry): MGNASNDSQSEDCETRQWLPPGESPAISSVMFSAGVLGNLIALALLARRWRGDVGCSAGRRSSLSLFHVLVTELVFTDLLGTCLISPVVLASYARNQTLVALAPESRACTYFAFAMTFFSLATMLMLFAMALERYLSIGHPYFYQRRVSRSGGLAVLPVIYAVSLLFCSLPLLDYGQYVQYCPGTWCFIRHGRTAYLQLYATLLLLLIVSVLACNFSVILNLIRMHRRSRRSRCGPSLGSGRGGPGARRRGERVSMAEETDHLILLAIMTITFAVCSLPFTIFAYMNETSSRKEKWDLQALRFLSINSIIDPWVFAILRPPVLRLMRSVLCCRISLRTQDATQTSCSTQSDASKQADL

[4] = biological target: EP2 receptor; conditions: 2000, cited from earlier work; for pKD, EP2 receptor: reported affinity, ref Abramovitz et al.
[5] = test system: AC activity; assay: cAMP accumulation in human ASMC, HitHunter cAMP HS+ assay; format: cell-based
[6] = biological target: EP4 receptors (Homo sapiens, UniProt P35408); format: cell-based
EP4 receptors, sequence (P35408 whole entry): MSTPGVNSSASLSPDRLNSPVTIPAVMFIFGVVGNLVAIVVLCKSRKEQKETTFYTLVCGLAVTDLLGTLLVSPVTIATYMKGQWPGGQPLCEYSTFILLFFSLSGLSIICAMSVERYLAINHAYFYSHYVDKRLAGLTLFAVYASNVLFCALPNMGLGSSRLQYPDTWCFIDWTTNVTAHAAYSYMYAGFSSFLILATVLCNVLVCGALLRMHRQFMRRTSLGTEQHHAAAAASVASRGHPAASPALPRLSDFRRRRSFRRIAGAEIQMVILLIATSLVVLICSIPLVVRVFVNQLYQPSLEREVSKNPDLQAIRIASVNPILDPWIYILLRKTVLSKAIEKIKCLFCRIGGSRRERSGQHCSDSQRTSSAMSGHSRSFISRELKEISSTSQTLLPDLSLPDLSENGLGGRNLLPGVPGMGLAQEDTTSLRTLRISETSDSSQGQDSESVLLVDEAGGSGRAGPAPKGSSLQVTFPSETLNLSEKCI

[7] = test system: EP4 receptor; conditions: cited from earlier work
[8] = test system: AC activity; assay: cAMP accumulation in human ASMC, 3H-adenine-labelling assay; format: cell-based; conditions: read-out: pEC50 for cAMP accumulation (converted)
[9] = test system: human ASMC; assay: Direct effect of drug alone on [Ca2+]i in human ASMC; format: cell-based
[10] = read-out: [Ca2+]i, pIC50, Control (converted)

Compound: NCCOB(c1ccccc1)c1ccccc1 [2-APB, 2-aminoethoxydiphenyl borate]
effect on Ca2+ signals evoked by histamine ([1]; 2-APB 5 min before, histamine 3 μM or 1 mM, Ca2+-free HBS): concentration-dependent inhibition
effect on Ca2+ content of the intracellular stores [2]: substantial loss

ΔpIC50 (pIC50 control − pIC50 +antagonist) of L902,688 ([1]; AH6809 30 μM, histamine 3 μM): −0.01 ± 0.27
ΔpIC50 (pIC50 control − pIC50 +antagonist) of PGE2 ([1]; AH6809 30 μM, histamine 3 μM): 0.62 ± 0.13
ΔpIC50 (pIC50 control − pIC50 +antagonist) of butaprost ([1]; AH6809 30 μM, histamine 3 μM): 1.12 ± 0.15
Kd [3]: 2.51 µM
Compound: CC(C)Oc1ccc2c(=O)c3cc(C(=O)O)ccc3oc2c1 [AH6809, 6-isopropoxy-9-oxoxanthene-2-carboxylic acid]
pKD, EP2 receptor [4]: 5.9

Compound: O=C(O)CCCCCC[C@H]1C(=O)NC(=O)N1CCC(O)C1CCCCC1 (stereo partly drawn) [BW 245C, (4S)-(3-[(3R,S)-3-cyclohexyl-3-hydroxypropyl]-2,5-dioxo)-4-imidazolidineheptanoic acid]
effect on histamine-evoked Ca2+ signals ([1]; BW 245C 10 nM, histamine 3 μM): no effect

IC50 [1, 10]: 0.00603 µM
difference between functional pIC50 and published binding affinity (pKD) ([1]; pIC50 8.22 vs pKD 7.04): more than 10 fold
EC50 for cAMP accumulation relative to PGE2 (higher) ([5]; butaprost vs PGE2): ~10 fold
Compound: CCCC1([C@H](O)C/C=C/[C@H]2[C@H](O)CC(=O)[C@@H]2CCCCCCC(=O)OC)CCC1 [Butaprost]
affinity for human EP2 receptors relative to PGE2 (lower) ([4]; ref Narumiya et al., 1999, Abramovitz et al.): ~20 fold
pKD, EP2 receptor [4]: 7.04

ΔpIC50 (pIC50 control − pIC50 +antagonist) of L902,688 ([1]; GW627368X 1 μM, histamine 3 μM): 2.20 ± 0.28
ΔpIC50 (pIC50 control − pIC50 +antagonist) of PGE2 ([1]; GW627368X 1 μM, histamine 3 μM): 0.24 ± 0.08
ΔpIC50 (pIC50 control − pIC50 +antagonist) of butaprost ([1]; GW627368X 1 μM, histamine 3 μM): −0.21 ± 0.14
Kd [6]: 0.00631 µM
Compound: CCOc1c2c(c(OCC)c3ccccc13)C(=O)N(c1ccc(CC(=O)NS(=O)(=O)c3ccccc3)cc1)C2 [GW627368X, 2-[4-(4,9-diethoxy-3-oxo-1H-benzo[f]isoindol-2-yl)phenyl]-N-phenylsulfonylacetamide]

[Ca2+]i, pIC50, Control ([1]; histamine 3 μM, agonist alone): 9.52 ± 0.25 (3) /M
cAMP, pEC50, Control ([5]; HitHunter HS+ assay, 5 min): 7.76 ± 0.11 (3) /M
Compound: O=C1CC[C@H](/C=C/[C@@H](O)C(F)(F)c2ccccc2)N1CCCCCCc1nn[nH]n1 [L902,688, 5-[(1E,3R)-4,4-difluoro-3-hydroxy-4-phenyl-1-buten-1-yl]-1-[6-(2H-tetrazol-5R-yl)hexyl]-2-pyrrolidinone]
affinity for EP4 receptors relative to PGE2 (greater) ([7]; ref Supporting Information Table S4): approximately twofold
pKD, EP4 receptor ([7]; reported affinity, ref Young et al., 2004): 9.4

IC50 [1, 10]: 0.000537 µM
EC50 [8]: 0.214 µM
Compound: CCCCC[C@H](O)/C=C/[C@H]1[C@H](O)CC(=O)[C@@H]1C/C=C\CCCC(=O)O [PGE2, Prostaglandin E2]
effect on [Ca2+]i ([9]; PGE2 alone (10 μM)): no effect

Compound: CS(=O)(=O)NC(=O)CCC/C=C\C[C@H]1C(=O)C[C@@H](O)[C@@H]1/C=C/[C@@H](O)COc1ccccc1 [Sulprostone, sulprostone]
effect on histamine-evoked Ca2+ signals ([1]; sulprostone 1 μM, histamine 3 μM): no effect

IC50 ([1]; read-out: pIC50 for inhibition of Ca2+ signals evoked by histamine (converted)): 1.74 µM
Compound: COc1ccc2c(c1)CC[C@@H]1[C@@H]2CC[C@]2(C)[C@@H](NCCCCCCN3C(=O)C=CC3=O)CC[C@@H]12 [U73122, 1-[6-[[(17β)-3-methoxyestra-1,3,5(10)-trien-17-yl]amino]hexyl]-1H-pyrrole-2,5-dione]

Compound: COc1ccc2c(c1)CC[C@@H]1[C@@H]2CC[C@]2(C)[C@@H](NCCCCCCN3C(=O)CCC3=O)CC[C@@H]12 [U73343, 1-[6-[[(17β)-3-methoxyestra-1,3,5(10)-trien-17-yl]amino]hexyl]-2,5-pyrrolidinedione]
effect on Ca2+ signals evoked by histamine ([1]; U73343 ≤10 μM, histamine 100 μM): no effect

Compound: Cn1c(=O)c2c(ncn2C)n(C)c1=O [caffeine]
effect on [Ca2+]i ([9]; caffeine 10 mM): no effect

Compound: COc1ccc2c(c1)c(CC(=O)O)c(C)n2C(=O)c1ccc(Cl)cc1 [indomethacin, Indomethacin]
effect on histamine-evoked Ca2+ signals ([1]; indomethacin 10 μM, 5 min): nor indomethacin, an inhibitor of cyclooxygenases (Figure 1F), had any effect

Compound: CC(C)OC(=O)CCC/C=C\C[C@@H]1[C@@H](CC[C@@H](O)CCc2ccccc2)[C@H](O)C[C@@H]1O [latanoprost]
effect on histamine-evoked Ca2+ signals ([1]; latanoprost 100 nM, histamine 3 μM): no effect

Compound: CC(C)[C@@]1(O)[C@@H](OC(=O)c2ccc[nH]2)[C@@]2(O)[C@@]3(C)C[C@]4(O)O[C@@]5([C@H](O)[C@@H](C)CC[C@]35O)[C@@]2(O)[C@@]14C [ryanodine, Ryanodine]
effect on responses to histamine ([1]; ryanodine 100 μM, 5 min): unaffected

Compound: COc1ccc([C@H]2N[C@H](C(=O)O)Cc3c2[nH]c2ccccc32)cc1CN1CCN(c2ccccc2F)CC1 [trans-Ned-19, (1R,3S)-1-[3-[[4-(2-fluorophenyl)piperazin-1-yl]methyl]-4-methoxyphenyl]-2,3,4,9-tetrahydro-1H-pyrido[3,4-b]indole-3-carboxylic acid]
effect on responses to histamine ([1]; trans-Ned-19 1 μM, 5 min): unaffected
